In patent publication US8450502B2, “Pharmaceutical compositions for inhibiting angiogenesis” (Industry-Academic Cooperation Foundation Yonsei University, priority 2008, dated 2013):

What was measured:
[1] = molecular target: T1, mitochondrial protein QP-C (Homo sapiens, UniProt P14927); assay: Competitive binding assay by fluorescent staining in HUVECs; format: cell-based; settings: for Inhibition of binding between coumarin-terpestacin and QP-C (blue fluorescence in the cytoplasm): HUVEC, pretreatment 24 hours with HDNT 10 μM or terpestacin 30 μM, coumarin-terpestacin 20 μM 2 hours
T1 construct: endogenous in cells; host or cells: HUVEC
T1 sequence (P14927 1-111): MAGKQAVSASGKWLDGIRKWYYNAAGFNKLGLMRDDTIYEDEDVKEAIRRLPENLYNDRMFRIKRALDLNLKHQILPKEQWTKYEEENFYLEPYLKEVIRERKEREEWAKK
Description: Human umbilical vein endothelial cells (HUVEC) were seeded on a 24-well plate (2×10^4 cells/well) and cultured in EBM-2 (LONZA®) medium containing 10% fetal bovine serum (INVITROGEN®). Then, the cells were washed with PBS buffer (pH 7.4), and the culture medium was replaced with a fresh one. The inventive compound HDNT (10 μM) or the compound terpestacin (30 μM) binding to QP-C was added to each well and the cells were incubated for 24 hours. A fluorescent dye coumarin (20 μM) and coumarin-conjugated terpestacin (20 μM) were each added to the control group and the treated group, followed by incubation for another 2 hours. The cells were washed with PBS buffer. Fluorescent intensity was observed under an IX70 fluorescent microscope (OLYMPUS®) and a microscopic image was taken (see FIG. 7).

HIV = settings: cited from earlier work
[2] = tested on: embryonic chick chorioallantoic membrane (CAM); settings: cited from earlier work
[3] = tested on: human umbilical vein endothelial cells (HUVEC); settings: cited from earlier work
[4] = tested on: QP-C-expressing bacteriophage T7 (human QP-C); assay: Competitive binding assay by phage display; settings: competitor 200 μM, biotinylated terpestacin 5 μM immobilized
Description: Bacteriophage T7 (NOVAGEN®) was purchased which encodes cDNA library obtained from live different human tissues (hepatoma, normal liver, dementia brain, normal brain, and normal stomach). A host cell E. coli BLT5615 was infected with Bacteriophage followed by amplification. Biotinylated terpestacin (5 μM) in TBS buffer (pH 7.5) was immobilized on a streptavidin-coated 96-well plate (Pierce Biotechnology), and then the amplified, bacteriophage T7 library (6×1.0^9 pfu/mL) was added to the terpestacin-immobilized wells. After being stirred at room temperature for 1 hour, bacteriophage T7 particles which were not hound to terpestacin were washed with TBS buffer to remove the non-bound bacteriophage T7 particles. Terpestacin-bound bacteriophage T7 particles were elated for 1 hour with addition of terpestacin (100 μM) dissolved in TBS buffer. The elated bacteriophage T7 particles were infected into E. coli strain BLT5615 cultured on LB agar medium. The thus-formed bacteriophage T7 plaques were isolated and DNA sequences were analyzed to obtain bacteriophage expressing a ubiquinone-binding protein (QP-C) of the mitochondria complex III.
QP-C-expressing bacteriophage T7 was infected into a host cell E. coli BLT5615, followed by amplification. […] The thus-formed bacteriophage plaques were counted and the results were compared between the treated group and the control group (see FIG. 6).

purified QP-C protein = molecular target: T2, purified QP-C protein (Homo sapiens, UniProt P14927); assay: Competitive binding assay by surface plasmon resonance; settings: compound 25 μM, QP-C protein 25 μM, biotinylated terpestacin 100 μM immobilized
T2 construct: GST (N, cleaved yes); made in house; host or cells: E. coli BL21
T2 sequence (P14927 1-111): T1 sequence (P14927 1-111)
Description: Using, liver tissue cDNA library as a template, a QP-C gene (GENBANK® Accession No. NM_006294 was amplified by polymerase chain reaction (PCR). Sequences of PCR primers used herein are as follows: forward primer 5′-[…]-3′, and reverse primer 5′-[…]-3′. The QP-C gene was inserted into a multi cloning site (EcoRI/XhoI site) of a pGEX-4T1 vector (Amersham Pharmacia) which was then transformed into E. coli BL21 for protein expression, IPTG (1 mM) was added to the LB culture OD600=0.6) of the transformed bacteria, followed by shaking culture at 37° C. for 4 hours. The cells were disrupted using a sonicator and the expressed GST/QP-C fusion protein was purified by addition of glutathione agarose heads (SIGMA®). In order to remove a GST portion of the fusion protein, thrombin (Amersham Pharmacia) was added thereto at room temperature, followed by overnight stirring. Only the supernatant containing the QP-C protein was recovered by centrifugation (see FIG. 2). […]
The binding sensorgram containing association and dissociation curves was obtained by BIACORE® 2000, and 50 mM NaOH (5 μl) was poured on the sensor chip surface to result in regeneration. […] A surface plasmon resonance response curve was analyzed using BIACORE® Evaluations software, version 3.1 (see FIG. 8).

[5] = tested on: human umbilical vein endothelial cells (HUVEC); assay: HUVEC invasion assay (Transwell, VEGF); format: cell-based; settings: VEGF 30 ng/mL, HDNT 2.5, 5 μM, 18 hours
Description: Invasion of human umbilical vein endothelial cells (HUVEC) was measured in vitro using a TRANSWELL® chamber system (Corning Costar) equipped with a polycarbonate filter. First, a lower part of the filter was coated with 10 μl of gelatin (10 mg/mL) for 1 hour, and an upper part of the filter was coated with 10 μl of MATRIGEL® (3 mg/mL) for 2 hours. […] The coated filter was placed on the TRANSWELL®, and HUVECs (1×10^5 cells/well) were inoculated on the upper part of the filter, followed by cell culture in an incubator for 18 hours. Then, the cells were fixed with 70% methanol and stained with hematoxylin/eosin. Total cells in one filter were microscopically counted to measure a degree of cell invasion (see FIG. 4).

[6] = tested on: mitochondrial membrane potential of HUVECs; assay: Determination of mitochondrial membrane potential (JC-1 staining); format: cell-based, human; settings: HUVEC, HDNT 1, 5, 10 μM, 4 hours
Description: Human umbilical vein endothelial cells (HUVEC) were seeded on a 24-well plate (2×10^4 cells/well) and cultured in EBM-2 (LONZA®) medium containing 10% fetal bovine serum (INVITROGEN®). Then, the cells were washed with PBS buffer (pH 7.4) and the culture medium was then replaced with a fresh one. The inventive compound HDNT (1, 5, 10 μM) was added to the culture medium and the cells were incubated for 4 hours. In order to measure changes of the mitochondrial membrane potential, the cells were stained with […] a lipophilic cationic probe 5,5′6,6′-tetrachloro-1,1′,3,3′-tetraethylbenzimidazole-carbocyanine iodide (JC-1, MOLECULAR PROBES®) for 15 min. The carbocyanine cationic dye forms a red fluorescent J-aggregate at a hyperpolarization membrane potential (to −140 mV), and the dye maintains a green fluorescent monomeric form at a depolarization membrane potential (to −100 mV). The stained cells were washed twice with PBS buffer. A microscopic image (×100) was obtained under an IX70 fluorescent microscope OLYMPUS®) (see FIG. 5).

[7] = tested on: human umbilical vein endothelial cells (HUVEC); assay: Tube formation of human umbilical vein endothelial cells (VEGF-induced, Matrigel); format: cell-based; settings: VEGF 30 ng/mL, HDNT 2.5, 5 μM, 8 hours
Description: A 48-well plate was coated with 150 μl of Matrigel (10 mg/mL, Collaborative Biomedical Products), followed by polymerization at 37° C. for 2 hours. […] The cells were cultured in an incubator for 8 hours while observing morphological changes of the cells under a microscope.

C/C1=C/CC/C(C)=C/CC2(C)C(=O)C(O)=C(C(C)COC(=O)CCCCCNC(=O)CCCCCNC(=O)Cc3c(C)c4ccc(N)cc4oc3=O)C2C/C=C(\C)C(O)CC1 (stereo not shown) [coumarin-terpestacin]
Fluorescence staining of HUVECs ([1]; 20 μM, 2 hours): intense blue fluorescence in the cytoplasm

C/C1=C\C[C@]2(C)C(=O)C(O)=C([C@H](C)CO)[C@H]2C/C=C(\C)[C@@H](O)CC/C(C)=C/CC1 [terpestacin]
Formation of syncytium during HIV infections (HIV): inhibit the formation of syncytium | Inhibition of binding between coumarin-terpestacin and QP-C (blue fluorescence in the cytoplasm) [1]: significant attenuation of blue fluorescence | Angiogenesis of embryonic chick chorioallantoic membrane (CAM) in vivo [2]: strongly inhibits angiogenesis | Angiogenic responses of HUVEC in vitro [3]: strongly inhibits angiogenic responses | Inhibition of binding between biotinylated terpestacin and QP-C-expressing bacteriophage T7 [4]: significantly inhibited | inhibition at 25 µM (purified QP-C protein; read-out: Inhibition of the binding between biotin-terpestacin and QP-C protein): ≤ 60%

O=C1Sc2ccc(S(=O)(=O)Nc3ccc(O)c4ccccc34)c3cccc1c23 [HDNT, 6-((1-hydroxynaphthalen-4-ylamino)dioxysulfone)-2H-naphtho[1,8-bc]thiophen-2-one]
Inhibition of binding between coumarin-terpestacin and QP-C (blue fluorescence in the cytoplasm) [1]: blue fluorescence was significantly decreased | Inhibition of binding between biotinylated terpestacin and QP-C-expressing bacteriophage T7 [4]: effectively inhibited | VEGF-mediated invasion of HUVECs [5]: inhibited VEGF-mediated tube formation and invasion of HUVECs in a concentration-dependent manner | Change of mitochondrial membrane potential (JC-1 red/green fluorescence) [6]: disrupts the mitochondrial membrane potential | VEGF-mediated tube formation of HUVECs [7]: inhibited VEGF-mediated tube formation and invasion of HUVECs in a concentration-dependent manner | Inhibition of the binding between biotin-terpestacin and QP-C protein (purified QP-C protein): 40%
